The target in the assay is T1, High affinity choline transporter 1 (Homo sapiens, UniProt Q9GZV3).
T1 sequence (Q9GZV3 whole entry): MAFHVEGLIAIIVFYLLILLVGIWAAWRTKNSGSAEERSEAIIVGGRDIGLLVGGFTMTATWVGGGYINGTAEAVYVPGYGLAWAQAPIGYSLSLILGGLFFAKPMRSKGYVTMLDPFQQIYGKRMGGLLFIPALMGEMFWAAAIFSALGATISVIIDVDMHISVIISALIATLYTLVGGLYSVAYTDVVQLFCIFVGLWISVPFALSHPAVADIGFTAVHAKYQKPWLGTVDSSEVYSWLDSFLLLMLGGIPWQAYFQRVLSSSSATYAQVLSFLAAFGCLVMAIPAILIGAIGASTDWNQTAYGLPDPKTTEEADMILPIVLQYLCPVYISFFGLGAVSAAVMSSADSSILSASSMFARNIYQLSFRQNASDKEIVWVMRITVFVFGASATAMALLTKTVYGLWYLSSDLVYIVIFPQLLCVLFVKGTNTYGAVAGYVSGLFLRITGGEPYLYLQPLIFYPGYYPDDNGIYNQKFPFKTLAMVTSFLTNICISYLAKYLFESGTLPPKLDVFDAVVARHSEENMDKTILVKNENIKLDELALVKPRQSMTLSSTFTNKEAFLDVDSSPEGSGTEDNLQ
The experiment in a line: Substrate uptake and inhibition of the High Affinity Choline Transporter 1 (CHT1, SLC5A7) as assessed by the fluorescent FLIPR membrane potential dye in HEK-293 JumpIN-SLC5A7 cells (PubChem AID: 1794811). The class given is functional, cell-based, HEK293.

In the case of `C[N+]1(C)CCOC(O)(c2ccc(-c3ccc(C4(O)C[N+](C)(C)CCO4)cc3)cc2)C1.[Br-].[Br-]` (configuration not stated), under “hek293”, the IC50 entry was “Inhibitor: Almost Complete Inhibition At A Concentration Of 10 Μm”.

Regarding `C[N+](C)(C)CCO.[Cl-]` [CHOLINE CHLORIDE], a half-maximal response (EC50) required 17 µM.

The values above are taken from ChEMBL document CHEMBL5209576, “Membrane potential based assay for SLC5A7 using HEK-293 SLC5A7 OE cells” (2022).
